From patent publication US20100286131A1, “VIRAL POLYMERASE INHIBITORS” (BOEHRINGER INGELHEIM INTERNATIONAL GMBH, priority 2007, published 2010) come the findings set out here.

Series [1] deals with cells expressing a stable subgenomic HCV replicon. The series is described as follows: Cell-based luciferase reporter HCV RNA replication assay. The conditions noted are these: Hepatitis C virus, inhibition of HCV RNA replication, assay of WO 2005/028501. As for the experimental part: Cell-Based Luciferase Reporter HCV RNA Replication Assay
Compounds of the invention are tested for activity as inhibitors of hepatitis C virus RNA replication in cells expressing a stable subgenomic HCV replicon, using the assay described in WO 2005/028501, herein incorporated by reference. Table 4 lists representative compounds of the invention with their EC50 values and a comparative non-fluorinated analog wherein the presence of the fluorine atom provided an unexpected improvement in cell-based potency.

A short description of series [2]: In vitro metabolism in male human liver microsomes (HLM). The conditions noted are these: 1 mg microsomal protein, 2.5 mM NADPH, 2 μM compound, pH 7.4, 37° C. It counts as in vitro ADME. As to the method: Male human liver microsomes are purchased from Gentest. The pool consisted of microsomes from several donors. The in vitro metabolism in liver microsomes is carried out in a reaction media containing 1 mg of microsomal protein, 2.5 mM NADPH and 2 μM compound in a total volume of 1 ml of 0.066 M Tris buffer, pH 7.4 for 20 minutes at 37° C. Reactions are initiated by the addition of NADPH and terminated at the appropriate times by quenching with an equal volume of a 1:1 mixture of acetonitrile:methanol.

As to `CC(C)N(c1ccc(Oc2ncc(CN3CCC(F)(F)C3)cc2C(F)(F)F)cc1C(=O)O)C(=O)[C@H]1CC[C@H](C)CC1`, the midpoint of the response in series [1], the EC50, lay at 89 nM.
Same read-out and setting: under `Cc1ccc(OCc2cnc(Oc3cc(C(=O)O)c(N(C(=O)[C@H]4CC[C@H](C)CC4)C(C)C)cc3F)c(C(F)(F)F)c2)c(C)n1` [Compound 1058] stands 39.5 nM; under `CC(C)N(c1ccc(Oc2ncc(Cn3cnnc3)cc2C(F)(F)F)cc1C(=O)O)C(=O)[C@H]1CC[C@H](C)CC1`, 160 nM.
As to `CC(C)N(c1ccc(Oc2ncccc2C(F)(F)F)cc1C(=O)O)C(=O)[C@H]1CC[C@H](C)CC1`, the HLM in series [2] was 69 min.
`Cc1ccc(OCc2cnc(Oc3ccc(N(C(=O)[C@H]4CC[C@H](C)CC4)C(C)C)c(C(=O)O)c3)c(C(F)(F)F)c2)c(C)n1` yielded an EC50 in series [1] of 86.5 nM.
Still for that read-out and setting: with `CC(C)N(c1cc(F)c(Oc2ncc(CN3CCC(F)(F)C3)cc2C(F)(F)F)cc1C(=O)O)C(=O)[C@H]1CC[C@H](C)CC1` [Compound 1101] the figure was 41.5 nM.
On to `Cc1nc(Cc2cnc(Oc3cc(C(=O)O)c(N(C(=O)[C@H]4CC[C@H](C)CC4)C(C)C)cc3F)c(C(F)(F)F)c2)cs1` [Compound 1072], for which the HLM in series [2] is recorded as 129 min.
Same read-out and setting: with `Cc1nc(Cc2ccc(Oc3ccc(N(C(=O)[C@H]4CC[C@H](C)CC4)C(C)C)c(C(=O)O)c3)c(C(F)(F)F)c2)cs1` the figure was 29 min.
Consider `CC(C)N(c1ccc(Cc2ccc(Cn3cccc4ccnc3-4)cc2C(F)(F)F)cc1C(=O)O)C(=O)[C@H]1CC[C@H](C)CC1`, for which, in series [1], the EC50 is 208 nM.
Take `CC(C)N(c1cc(F)c(Oc2ncccc2C(F)(F)F)cc1C(=O)O)C(=O)[C@H]1CC[C@H](C)CC1` [Compound 1011]: in series [2], the HLM is on record as 136 min.
In series [1], `CC(C)N(c1cc(F)c(Oc2ccc(Cn3ccc4cccnc43)cc2C(F)(F)F)cc1C(=O)O)C(=O)[C@H]1CC[C@H](C)CC1` [Compound 3033] displayed a 50% effective concentration (EC50) of 145 nM.
The same measure, in the same setting: under `CC(C)N(c1ccc(Oc2ccc(Cn3ccc4cccnc43)cc2C(F)(F)F)cc1C(=O)O)C(=O)[C@H]1CC[C@H](C)CC1` stands 265 nM; under `CC(C)N(c1cc(F)c(Oc2ncc(Cn3cnnc3)cc2C(F)(F)F)cc1C(=O)O)C(=O)[C@H]1CC[C@H](C)CC1` [Compound 1042], 47 nM.
On the same count and under the same terms, with `CC(C)N(c1cc(F)c(Oc2ccc(Cn3cccc4ccnc3-4)cc2C(F)(F)F)cc1C(=O)O)C(=O)[C@H]1CC[C@H](C)CC1` [Compound 3016] the figure was 72.5 nM.
